Results taken from publication PMC9182141, “Assay Development and Identification of the First Plasmodium falciparum 7,8-dihydro-6-hydroxymethylpterin-pyrophosphokinase Inhibitors” (Molecules, 2022).

Assays:
[1] = target: T1, PfHPPK-GFP (Plasmodium falciparum, UniProt Q25704); assay: DSF-GTP (GFP-tagged protein differential scanning fluorimetry) thermal shift; type: binding
Procedure: In a preliminary screening experiment, buffer conditions were investigated, searching for conditions that provide the largest thermal shift in the presence of 1 mM ATP. DSF curves were recorded under a total of 17 different conditions, with variations in buffer nature and pH, salts nature and concentration, effect of reducing agent, MgSO4 and glycerol.
From there, protein binding properties of the hit compounds were assessed experimentally using the developed DSF-GTP assay. A total of 54 compounds were tested, including virtual screening hits and closely related structures. According to our protocol, each compound was mixed with PfHPPK-GFP and submitted to a temperature gradient from 30 °C to 90 °C at 1 °C/min while GFP fluorescence was recorded. The first derivative of the resulting curve was used to determine the melting temperature (Tm). For each set of experiments, a negative control containing DMSO was added, and ΔTm values were calculated for each compound vs. the DMSO control. […] Two compound families were identified as the most promising by our DSF-GTP assay: 5-phenylazo-2,4-diaminopyrimidines (series 1) and phenyltriazolyl-2-amino-4-pyrimidinone (series 2). In series 2, linkers of different lengths that separate the phenyl triazolyl and the pyrimidine moieties were included.
In a typical DSF-GTP experiment, a master mix containing buffer and PfHPPK-GFP was prepared in a microcentrifuge tube, corresponding to a final protein concentration of 20 μg/mL. Ligands of interest were dispensed in low-profile 96-well plates (Bio-Rad) to 1 mM final concentration, and the master mix was dispensed to a final volume of 50 μL per well. In these conditions, DMSO content was maintained constant at 2%. The microplate was sealed with adhesive film and mixed by shaking for 2 min at 800 rpm at RT. The microplate was then submitted to a DSF run on a CFX96 RT-PCR (Bio-Rad, Hercules, CA, USA). DSF program was designed by starting with a 3 min equilibration phase at 30 °C, followed by a temperature gradient of 1 °C/min until 90 °C, recording fluorescence every 0.5 °C. Fluorescence was recorded using the FAM channel (λex = 450–490 nm, λem = 510–530 nm). Curves were fitted using the Precision Melt Analysis software (Bio-Rad).

[2] = system: PfHPPK; design: method as in PMID 19631695; details: substrate of monofunctional PfHPPK; cited from earlier work
[3] = Metabolic stability in human liver microsomes; details: human, liver microsomes
Procedure: (§1) Intrinsic clearance was also measured in both human and rat liver microsomes in order to assess sensitivity to metabolic degradation.
(§2) Metabolic stability of test compounds was determined in human and rat liver microsomes. The assay was adapted from a previously published method. Briefly, the test compounds were mixed with liver microsomes, and the metabolic reactions were initiated by the addition of NADPH. Acetonitrile containing an internal standard (labetalol) was added at 0, 5, 10, 30, and 60 min to stop the reactions. Samples were processed, and the remaining compounds in the reactions were detected using a LC-MS/MS. Distribution coefficient, solubility and polar surface area were predicted using Marvin software. Partition coefficient was predicted using ACD/Labs software.

[4] = system: Plasmodium falciparum TM4/8.2 (drug sensitive); assay: Antimalarial activity, [3H]-hypoxanthine incorporation assay, TM4/8.2; type: cell-based; details: P. falciparum TM4/8.2 (drug sensitive), when no IC50 could be determined, highest tested concentration noted
Procedure: (§3) Finally, the various hit compounds were tested for their antimalarial activity against P. falciparum TM4/8.2 [26] and V1/S [27] strains. Parasite cultures were treated with test compounds at different concentrations, and antimalarial activity was measured using [3H]-hypoxanthine incorporation assay, according to our previously reported protocol. […] IC50 values could not be measured for other compounds. At this stage, there is no explanation for the difference in antiparasitic activity observed between TM4/8.2 and V1/S strains, and more investigations would be needed to conclude on this effect.
(§4) Compounds were tested for their antimalarial activity against P. falciparum TM4/8.2 [26] and V1/S [27] strains according to our previously reported protocol. In brief, parasite strains were maintained continuously in human erythrocytes in RPMI1640 supplemented with 25 mM HEPES pH 7.4, 0.2% NaHCO3, 40 µg/mL gentamicin and 8% human serum at 37 °C under 3% CO2. For in vitro antimalarial assay, parasite was treated with serial dilutions of the inhibitors, and parasite survival was determined using a modified microdilution radioisotope technique.

[5] = system: Plasmodium falciparum V1/S (drug resistant); assay: Antimalarial activity, [3H]-hypoxanthine incorporation assay, V1/S; type: cell-based; details: Plasmodium falciparum, P. falciparum V1/S (drug resistant); when no IC50 could be determined, highest tested concentration noted
Procedure: as §3, §4

[6] = target: T1, PfHPPK-GFP; assay: KinaseGlo enzyme inhibition assay; type: biochemical; details: 1 mM compound, 10 μM HMDP and 10 μM ATP, 20 min at RT; read-out: Inhib. at 1 mM (%)
Procedure: For all the compounds displaying a measurable change of Tm, PfHPPK inhibition was recorded at 10 μM HMDP and ATP and 1 mM compound using the KinaseGlo assay. These conditions were chosen to be in the reported Km range for both HMDP and ATP substrates, enabling detection of both competitive and uncompetitive inhibitors. Compounds were incubated with HMDP, ATP and HPPK-GFP for 20 min at RT, followed by addition of the KinaseGlo reagent. After 10 min equilibration, luminescence was recorded, which directly reflects the quantity of ATP left in solution at the end of the reaction. Percentages of inhibition were calculated based on a DMSO positive control and a negative control lacking HPPK-GFP. Compounds structures, ΔTm and levels of inhibition appear in Table 1 and Table 2.
PfHPPK-GFP inhibition assay was carried using the KinaseGlo Plus kit (Promega, Madison, WI, USA). In a black 96-well plate were dispensed test compounds (1 μL of 50 mM DMSO stock), master mix (100 mM Tris pH 9, 10 mM β-mercapto ethanol, 10 mM MgSO4, 0.01% w/v BSA, 10 μM HMDP and 10 μM ATP). Reaction was initiated by addition of 2 μg of enzyme, reaching a total reaction volume of 50 μL, and reaction was allowed to proceed for 20 min at RT shaking at 300 rpm. Reaction was then quenched by addition of 50 μL KinaseGlo reagent and allowed to equilibrate for 10 min at RT shaking at 300 rpm. Luminescence was recorded on a Biotek Synergy H1 plate reader (Agilent, Santa Clara, CA, USA) using an integration time of 1 s per well. Percentage of inhibition was calculated related to a positive control experiment (no enzyme added) and a negative control experiment (no inhibitor added).

[7] = target: T1, PfHPPK-GFP; assay: KinaseGlo enzyme inhibition assay; type: biochemical; details: dose-response inhibition, read-out: IC50 against the enzyme
[8] = Metabolic stability in rat liver microsomes; details: rat, liver microsomes
Procedure: as §1, §2

[9] = system: Vero cell line (African green monkey kidney cells); assay: Cytotoxicity, sulforhodamine B assay, Vero cells; type: cell-based; details: Chlorocebus sabaeus, 72 h, when no IC50 could be determined, highest tested concentration noted
[10] = system: KB cell line (human epithelial carcinoma cells); assay: Cytotoxicity, sulforhodamine B assay, KB cells; type: cell-based; details: 72 h, when no IC50 could be determined, highest tested concentration noted

T1 sequence (Q25704 entry or part of it): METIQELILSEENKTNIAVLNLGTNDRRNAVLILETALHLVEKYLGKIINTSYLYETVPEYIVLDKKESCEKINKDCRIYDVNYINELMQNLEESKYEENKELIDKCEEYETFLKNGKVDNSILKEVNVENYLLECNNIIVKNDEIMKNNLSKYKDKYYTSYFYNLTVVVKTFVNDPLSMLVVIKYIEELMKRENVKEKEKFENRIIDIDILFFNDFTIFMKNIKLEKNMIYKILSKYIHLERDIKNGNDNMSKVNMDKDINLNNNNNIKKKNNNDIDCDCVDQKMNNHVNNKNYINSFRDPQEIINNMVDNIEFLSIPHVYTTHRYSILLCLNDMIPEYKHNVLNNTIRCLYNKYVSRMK

SMILES: Nc1ncnc2c1ncn2[C@@H]1O[C@H](COP(=O)(O)OP(=O)(O)OP(=O)(O)O)[C@@H](O)[C@H]1O [ATP]
- Tm ([1]; PfHPPK-GFP in optimal buffer in the presence of 1 mM ATP (apo form 81 °C)): 80 °C
- Km [2]: 13.2 µM

SMILES: CCc1nc(N)[nH]c(=O)c1CCCc1cn(-c2cccc(C(=O)O)c2)nn1 [Compound 14, 2-Amino-6-ethyl-5-(3-(1-(3-(carboxy)phenyl)-1H-1,2,3-triazol-4-yl)propyl)pyrimidin-4(3H)-one]
- microsomal CLint [3]: 4.88 µL/min/mg
- IC50 [4]: > 50 µM
- IC50 [5]: > 50 µM
- ΔTm at 1000 µM ([1]; read-out: ΔTm (°C)): -1.2 ± 0.3 °C
- inhibition at 1000 µM [6]: 42.8 ± 5.5%
- IC50 [7]: 814 ± 47 µM
- microsomal CLint [8]: 7.05 µL/min/mg
- IC50 [9]: > 50 µM
- IC50 [10]: > 50 µM
